Where two headings read alike, the source gives them in different places.
Tests used:
[1] = In vitro cytotoxicity, MTT assay; assay type: cell-based; details: cattle (MDBK), African green monkey (Vero), human (HFF)
Experimental: Compounds 5 and 6k have excellent safety profile with CC50>1000 micromolar in a number of cell lines. Standard MTT assays were performed in 96-well plates using the Promega CellTiter96 Non-radioactive Cell Proliferation Assay Kit in conjunction with a 96-well Plate Reader (ThermoMax, Molecular devices), and MDBK, Vero, and HFF cell lines (obtained from ATCC). Several controls were employed including the nucleoside analogs 3TC, AZT, and ddC, as well as, media without drugs. SDS was used as a positive cytotoxic control. The compounds were tested in triplicate at concentrations of 100, 300, and 1000 μM. Following a 24-hour incubation of cells with the test substance, the MTT assay was carried out.

[2] = test system: HBV wild type and drug resistant strains; assay: HepG2.2.15 HBV assay; assay type: cell-based; details: Hepatitis B virus, HepG2.2.15, read-out: EC50, inhibition of intracellular HBV replication
Experimental: Selected compounds were evaluated in in vitro cell-based HepG2.2.15 HBV assay.
Antiviral analysis. For the antiviral analyses, confluent cultures of 2.2.1.5 cells were maintained on 96-well flat-bottomed tissue culture plates in RPMI1640 medium with 2% fetal bovine serum. Cultures (6 per each test concentration on two replicate plates) were treated with 9 consecutive daily doses of the test compounds. Medium was changed daily with fresh test compounds. HBV nucleic acid and protein levels were measured 24 hours after the last treatment. Extracellular (virion) HBV DNA levels were assessed by quantitative blot hybridization. Intracellular HBV DNA levels were measured by quantitative Southern blot hybridization.

[3] = test system: HCV replicon AVA5 (sub-genomic (CON1), genotype 1b); assay: Primary anti-HCV assay, replicon cell line AVA5; assay type: cell-based; details: 3-day assay
Experimental: Antiviral activity against HCV was assessed in a 3-day assay (Okuse, et al., 2005; Antiviral. Res. 65:23; Korba, et al., 2008, Antiviral Res. 77:56) using the stably-expressing HCV replicon cell line, AVA5 (sub-genomic (CON1), genotype 1b) (Blight, et al., 2000; Science 290:1972) maintained as sub-confluent cultures on 96-well plates. Antiviral activity was determined by blot hybridization analysis of intracellular HCV RNA (normalized to the level of cellular B-actin RNA in each culture sample). Cytotoxicity was assessed by neutral red dye uptake in cultures maintained in parallel plates.
EC50, EC90, and CC50 values were calculated by linear regression analysis (MS EXCEL®, QuattroPro®) using data combined from all treated cultures Korba & Gerin, 1992, Antivir. Res. 19:55; Okuse, et al., 2005, Antivir. Res. 65:23). Standard deviations for EC50 and EC90 values are calculated from the standard errors generated by the regression analyses, EC50 and EC90 are drug concentrations at which a 2-fold, or a 10-fold depression of intracellular HCV RNA (relative to the average levels in untreated cultures), respectively was observed. […] Recombinant human interferon 2b (PBL laboratories, Inc.) is used as an assay control.

[4] = test system: IRF3-luciferase reporter gene (activation of NOD2); assay: IRF3-luciferase reporter induction in HLE A549 cells endogenously expressing NOD2; assay type: cell-based, human; details: for Fold induction of IRF3 luciferase activity: 1 µM; for fold induction at 1 µM: Homo sapiens, A549, 12 h
Experimental: In the primary assays, di- and trinucleotide compounds were tested for the induction of IRF3 expression in HLE A549 cells, which are known to express NOD2.
HLE cells normally endogenously express NOD2. To determine if short oligonucleotide compounds activate NOD2, HLE cells transfected with IRF3 plasmid were employed. IRF3-luciferase transfected cells were incubated with either DMSO only (UT) or test compounds (1 μM). Following 12 h incubation, Luciferase activity was measured using Dual-Luciferase Reporter Assay System (Promega) according to the manufacturer's protocol. Transection efficiency was normalized by measuring the expression of renilla Luciferase. Luciferase units (i.e., fold induction) were measured by standard methodology.

[5] = test system: Human Respiratory Syncytial Virus (RSV); assay: RSV infectivity, plaque assay; assay type: cell-based; details: human lung epithelial cells, RSV 0.5 MOI, 24 h post-infection
Experimental: (A) RSV infectivity in untreated (UT) and SMNH-treated cells. Human lung epithelial cells were infected with RSV (0.5 MOI) in the absence (DMSO only) or presence of various SMNH compounds (1 μM). At 24 h post-infection, the medium supernatant was collected and the viral titer in the supernatant was assayed by plaque assay analysis using CV-1 cell monolayer, 100% RSV infection represents viral titer from cells incubated with DMSO only (UT cells). The values represent mean±S.D. for three independent determinations. S.D. is shown as error bars.
(B) A typical plaque assay showing RSV infectivty in UT and SMNH-treated cells. Culture supernatant from RSV infected cells (+/− SMNH) was added to CV-1 cells at a dilution of […]. Plaques were observed and quantitated on methylcellulose after crystal violet staining.

[6] = 1 μM, 12 h, HLE A549 cells, SMNH treated vs. untreated cells

| Compound | CC50 at 24 h [1] | EC50 [2] | EC50 ([3]; Hepatitis C virus, Ava5, 72 h) | Fold induction of IRF3 luciferase activity [4, 6] | fold induction at 1 µM ([4]; 1 μM, 12 h, HLE A549 cells, SMNH treated vs. untreated cells, read-out: Fold induction of IRF3 luciferase activity) | % inhibition of RSV at 1 μM ([5]; 1 µM) | CC50 at 24 h ([1]; MTT, 24-hour incubation, tested at 100, 300, and 1000 μM, read-out: CC50) | EC90, 10-fold depression of intracellular HCV RNA [3] | fold induction at 1 µM ([4]; read-out: Fold induction of IRF3 luciferase activity, 1 μM, 12 h, HLE A549 cells, SMNH treated vs. untreated cells) | inhibition at 1 µM ([5]; human respiratory syncytial virus, Epithelial cell, 24 h) |
| --- | --- | --- | --- | --- | --- | --- | --- | --- | --- | --- |
| CO[C@H]1C(OP(=O)(S)OC[C@H]2O[C@@H](n3cnc4c(N)ncnc43)CC2O)[C@@H](CO)O[C@H]1n1ccc(=O)[nH]c1=O (stereo partly drawn) [Compound 5, 3-dApsU2′-OMe] | > 1000 µM | 0.3 to 2 µM | ~3 µM | 25 fold | 15 to 20 | 82% | – | – | – | – |
| CO[C@H]1C(OP(=O)(OC[C@H]2O[C@@H](n3cnc4c(N)ncnc43)CC2O)SCOC(=O)OC(C)C)[C@@H](CO)O[C@H]1n1ccc(=O)[nH]c1=O (stereo partly drawn) [Compound 6k] | – | 0.3 to 2 µM | – | 22 fold | – | – | > 1000 µM | about 8 micromolar | 15 to 20 | 60 to 80% |

From patent US20150329864A1, “DESIGN OF OLIGONUCLEOTIDE ANALOGS AS THERAPEUTIC AGENTS” (SPRING BANK PHARMACEUTICALS, INC., priority 2010, published 2015)
